In article PMC6332289, “Anti-Oxidant, Anti-Aging, and Anti-Melanogenic Properties of the Essential Oils from Two Varieties of Alpinia zerumbet” (Molecules, 2015):
Converted amounts (≈) assume the structure as drawn.

Target: T1, Clostridium histolyticum collagenase (ChC)
T1 construct: gene colG; commercial collagenase from Sigma-Aldrich
Test: FALGPA hydrolysis, absorbance at […] nm
Format: biochemical, Hathewaya histolytica
Conditions: 50 mM tricine, 400 mM NaCl, 10 mM CaCl2, pH 7.5; 0.8 mM FALGPA; 15 min preincubation

CC1(C)CC[C@]2(C(=O)O)CC[C@]3(C)C(=CC[C@@H]4[C@@]5(C)CC[C@H](O)C(C)(C)[C@@H]5CC[C@]43C)[C@@H]2C1 [oleanolic acid]
IC50: 21 ± 0.2 µg/mL (≈ 46 µM)
